Source: patent publication US11254640B2, “N-substituted indoles and other heterocycles for treating brain disorders” (The Regents of the University of California, priority 2019, dated 2022)

Tested on: C57/BL6J mice
Assay: Forced swim test (FST)
Assay type: in vivo, mouse
Settings: 24 h after drug administration; i.p., compounds 20 mg/kg, ketamine 3 mg/kg
Procedure: Forced Swim Test. As increased cortical structural plasticity in the anterior parts of the brain mediates the sustained (>24 h) antidepressant-like effects of ketamine and play a role in the therapeutic effects of 5-HT2A agonists, the impact of IsoDMT analogs on forced swim test (FST) behavior (FIG. 14A and FIG. 14B) was evaluated. First, a pretest was used to induce a depressive phenotype. Compounds were administered 24 h after the pre-test, and the FST was performed 24 h and 7 d post drug administration.
Forced Swim Test (FST). Male C57/BL6J mice (9-10 weeks old at time of experiment) were obtained from the Jackson Lab and housed 4-5 mice/cage in a UCD vivarium following an IACUC approved protocol. After 1 week in the vivarium each mouse was handled for approximately 1 minute by a experimenter for 3 consecutive days leading up to the first FST. […] Immobility scores for all mice were determined after the pre-test and mice were randomly assigned to treatment groups to generate groups with similar average immobility scores to be used for the following two FST sessions. […] Experiments were video-recorded and manually scored offline. Immobility time—defined as passive floating or remaining motionless with no activity other than that needed to keep the mouse's head above water—was scored for the last 4 min of the 6 min trial.

Compound: COc1ccc2c(ccn2C[C@@H](C)N(C)C)c1 [Example 59, (R)-1-(5-methoxy-1H-indol-1-yl)-N,N-dimethylpropan-2-amine]
- immobility in forced swim test: significantly reduced immobility
